Laboratory results taken from patent US20140228299A1, “PROPHYLACTIC AND THERAPEUTIC AGENT FOR NEUROLOGICAL DISEASES USING LIPOPROTEINS AND PROPHYLACTIC AND THERAPEUTIC METHOD FOR NEUROLOGICAL DISEASES” (National University Corporation Tokyo Medical and Dental …, priority 2011, published 2014).

What was measured:
[1] = test system: α2-macroglobulin released from glia cells; assay: α2-macroglobulin released from primary cultured glia cells (immunoblotting of culture supernatant); assay type: cell-based; conditions: 100 or 1,000 ng/mL; culture supernatant after 24 hours
Description: This example was to examine the amount of α2-macroglobulin released from the glia cells. To a culture mixture of the glia cells obtained by the primary culture, human lipoprotein containing apoE (100 or 1,000 ng/mL) was added, followed by collection of a culture supernatant after 24 hours. After the resulting supernatant was subjected to SDS-PAGE, it was detected by the immunoblotting using anti-α2-macroglobulin antibody. As a result, a decrease in the amount of α2-macroglobulin released from the glia cells was observed by the addition of the human lipoprotein containing apoE (FIG. 18).

[2] = target: T1, complex of LRP1 and NMDA receptor (Rattus norvegicus, UniProt G3V928); assay: Immune precipitation of LRP1-NMDA receptor complex from RGC; assay type: cell-based; conditions: LP added to RGC culture, cells collected in 15 minutes; anti-NMDA receptor 2B immune precipitation
T1 construct: endogenous in cells
Description: LP was added to a culture liquid of the retinal glia cells and the cells were collected in 15 minutes, followed by the immune precipitation as will be described below. For the immune precipitation, a rabbit anti-NMDA receptor 2B antibody was used, and the Western blotting was performed for LRP1 and NMDA receptor 2B.
The immune precipitation was carried out in the manner as will be described below. Specifically, the co-immunoprecipitation was performed in accordance with procedures of May et al. (May et al., 2004) by using a mixed solution prepared by adding a RGC dissolved solution to a mixed solution of a complete EDTA-free protease inhibitor cocktail (Roche, Mannheim, Germany) and a PhosSTOP phosphatase inhibitor cocktail (Roche) and a mixture of 10 mM Tris-HCl (pH7.4), 150 mM NaCl, 1 mM MgCl2, 1 mM CaCl2 and 1% Triton X-100. RGC was washed once with HBSS and collected on a 96-well plate using 40 μl per well of a dissolving buffer. The dissolved solutions from wells 9-12 were combined in each group. The RGC dissolved solution was passed fifteen times through a 22-gauge needle and then centrifuged at 15,000×g for 15 minutes at 4° C. The resulting supernatant was pretreated at 4° C. for 1 hour with 40 μl of 50% equilibrated protein G-Sepharose (GE Healthcare, Buckinghamshire, UK), and the Sepharose beads were removed by centrifugation. […]

T1 sequence (G3V928 20-3944 limits assumed, one chain of several): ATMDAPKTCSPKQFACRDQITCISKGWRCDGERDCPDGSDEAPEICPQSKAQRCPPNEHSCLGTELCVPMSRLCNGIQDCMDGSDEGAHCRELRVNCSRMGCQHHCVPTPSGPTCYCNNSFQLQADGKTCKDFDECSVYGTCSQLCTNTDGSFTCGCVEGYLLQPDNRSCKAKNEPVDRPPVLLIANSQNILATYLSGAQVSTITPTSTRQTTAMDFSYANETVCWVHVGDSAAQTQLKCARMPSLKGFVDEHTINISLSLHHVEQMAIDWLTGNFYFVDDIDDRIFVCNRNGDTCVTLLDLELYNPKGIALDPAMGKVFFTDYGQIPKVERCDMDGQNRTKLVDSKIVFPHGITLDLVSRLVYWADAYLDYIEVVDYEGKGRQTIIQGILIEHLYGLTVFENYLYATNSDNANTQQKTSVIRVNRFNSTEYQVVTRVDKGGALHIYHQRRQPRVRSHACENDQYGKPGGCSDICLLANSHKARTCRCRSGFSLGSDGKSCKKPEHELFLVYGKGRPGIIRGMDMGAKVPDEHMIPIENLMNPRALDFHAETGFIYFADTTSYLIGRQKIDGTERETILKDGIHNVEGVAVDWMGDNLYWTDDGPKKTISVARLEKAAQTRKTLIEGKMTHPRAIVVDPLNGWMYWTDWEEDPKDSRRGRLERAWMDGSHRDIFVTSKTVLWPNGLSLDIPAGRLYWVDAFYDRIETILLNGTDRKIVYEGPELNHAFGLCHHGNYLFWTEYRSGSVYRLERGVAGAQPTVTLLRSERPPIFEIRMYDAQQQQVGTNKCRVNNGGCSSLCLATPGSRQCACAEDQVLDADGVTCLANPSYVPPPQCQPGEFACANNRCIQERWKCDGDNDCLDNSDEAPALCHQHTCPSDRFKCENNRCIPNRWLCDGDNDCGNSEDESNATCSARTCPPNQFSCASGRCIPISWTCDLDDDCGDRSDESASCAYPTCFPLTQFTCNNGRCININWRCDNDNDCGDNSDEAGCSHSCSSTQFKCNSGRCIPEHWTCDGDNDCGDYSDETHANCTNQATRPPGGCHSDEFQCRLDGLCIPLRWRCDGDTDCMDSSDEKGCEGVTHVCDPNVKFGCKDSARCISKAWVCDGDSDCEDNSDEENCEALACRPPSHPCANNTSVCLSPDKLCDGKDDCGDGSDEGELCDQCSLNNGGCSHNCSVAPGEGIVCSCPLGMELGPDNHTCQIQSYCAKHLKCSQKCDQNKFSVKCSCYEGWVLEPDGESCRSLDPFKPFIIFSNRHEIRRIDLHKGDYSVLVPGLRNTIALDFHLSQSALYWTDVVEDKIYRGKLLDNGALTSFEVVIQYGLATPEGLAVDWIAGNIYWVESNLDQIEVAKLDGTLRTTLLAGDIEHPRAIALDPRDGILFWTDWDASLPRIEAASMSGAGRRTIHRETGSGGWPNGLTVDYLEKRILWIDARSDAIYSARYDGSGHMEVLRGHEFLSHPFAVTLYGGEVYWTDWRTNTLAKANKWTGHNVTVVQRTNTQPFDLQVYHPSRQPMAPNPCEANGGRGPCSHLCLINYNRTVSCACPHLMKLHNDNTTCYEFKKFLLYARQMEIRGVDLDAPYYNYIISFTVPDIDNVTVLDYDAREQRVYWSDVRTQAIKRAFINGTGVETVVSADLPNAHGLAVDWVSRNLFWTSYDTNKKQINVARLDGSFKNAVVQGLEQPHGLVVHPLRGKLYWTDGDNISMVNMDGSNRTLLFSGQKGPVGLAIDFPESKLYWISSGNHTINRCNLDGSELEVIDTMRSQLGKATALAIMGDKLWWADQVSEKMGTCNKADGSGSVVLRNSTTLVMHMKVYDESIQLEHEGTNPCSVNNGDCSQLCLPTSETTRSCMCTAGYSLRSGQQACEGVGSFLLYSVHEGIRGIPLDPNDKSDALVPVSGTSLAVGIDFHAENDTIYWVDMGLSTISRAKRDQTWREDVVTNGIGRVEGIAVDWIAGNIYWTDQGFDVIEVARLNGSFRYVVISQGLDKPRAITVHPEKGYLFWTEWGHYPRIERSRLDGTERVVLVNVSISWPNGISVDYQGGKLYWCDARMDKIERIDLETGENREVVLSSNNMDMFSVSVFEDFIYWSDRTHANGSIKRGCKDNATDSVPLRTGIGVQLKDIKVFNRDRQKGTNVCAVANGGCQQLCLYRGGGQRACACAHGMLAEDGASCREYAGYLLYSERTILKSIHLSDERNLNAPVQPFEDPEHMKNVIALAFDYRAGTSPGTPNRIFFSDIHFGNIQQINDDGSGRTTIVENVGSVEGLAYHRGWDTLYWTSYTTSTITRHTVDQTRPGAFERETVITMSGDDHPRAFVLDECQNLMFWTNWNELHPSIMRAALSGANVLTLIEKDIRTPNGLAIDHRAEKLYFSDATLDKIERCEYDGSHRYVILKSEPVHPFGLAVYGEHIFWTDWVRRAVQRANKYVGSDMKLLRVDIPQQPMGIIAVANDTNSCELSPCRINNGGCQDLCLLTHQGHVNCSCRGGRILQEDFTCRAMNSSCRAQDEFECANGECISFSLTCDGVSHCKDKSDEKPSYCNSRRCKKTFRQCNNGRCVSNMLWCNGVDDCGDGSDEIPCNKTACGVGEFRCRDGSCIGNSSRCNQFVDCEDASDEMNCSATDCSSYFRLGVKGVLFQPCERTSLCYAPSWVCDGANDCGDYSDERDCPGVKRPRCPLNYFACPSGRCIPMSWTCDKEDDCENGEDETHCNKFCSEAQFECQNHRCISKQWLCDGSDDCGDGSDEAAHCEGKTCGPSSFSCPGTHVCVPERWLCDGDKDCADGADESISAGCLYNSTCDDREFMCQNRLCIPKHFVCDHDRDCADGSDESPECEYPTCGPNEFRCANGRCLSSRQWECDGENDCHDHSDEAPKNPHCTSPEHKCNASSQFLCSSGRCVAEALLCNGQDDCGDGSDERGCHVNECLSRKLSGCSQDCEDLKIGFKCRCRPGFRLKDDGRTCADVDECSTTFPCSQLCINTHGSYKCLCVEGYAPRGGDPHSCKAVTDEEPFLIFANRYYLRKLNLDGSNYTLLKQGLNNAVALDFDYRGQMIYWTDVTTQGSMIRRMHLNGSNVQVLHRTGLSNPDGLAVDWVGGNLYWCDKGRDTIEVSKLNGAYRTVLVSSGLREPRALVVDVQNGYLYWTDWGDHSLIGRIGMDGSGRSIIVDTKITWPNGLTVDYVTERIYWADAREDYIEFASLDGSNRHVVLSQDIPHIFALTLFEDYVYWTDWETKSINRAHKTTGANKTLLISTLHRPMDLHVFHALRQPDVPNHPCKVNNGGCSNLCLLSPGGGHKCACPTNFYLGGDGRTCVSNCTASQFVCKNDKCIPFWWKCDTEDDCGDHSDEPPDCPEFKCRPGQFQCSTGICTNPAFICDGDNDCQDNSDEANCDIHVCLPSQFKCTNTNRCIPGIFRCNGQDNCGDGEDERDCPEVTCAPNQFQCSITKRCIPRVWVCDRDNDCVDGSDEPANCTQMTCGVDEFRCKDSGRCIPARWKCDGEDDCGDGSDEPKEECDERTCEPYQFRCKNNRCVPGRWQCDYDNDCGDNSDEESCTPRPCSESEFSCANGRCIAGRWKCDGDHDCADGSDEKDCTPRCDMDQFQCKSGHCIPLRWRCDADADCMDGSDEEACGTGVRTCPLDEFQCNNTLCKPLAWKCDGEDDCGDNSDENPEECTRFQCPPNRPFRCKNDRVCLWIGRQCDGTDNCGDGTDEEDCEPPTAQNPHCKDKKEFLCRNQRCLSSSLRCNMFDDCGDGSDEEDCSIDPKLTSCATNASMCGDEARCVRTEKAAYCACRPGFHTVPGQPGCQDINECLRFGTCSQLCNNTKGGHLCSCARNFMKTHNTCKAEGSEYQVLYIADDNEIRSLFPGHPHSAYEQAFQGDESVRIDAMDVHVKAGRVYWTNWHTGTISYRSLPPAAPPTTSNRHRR

Substance: E-LP: reconstituted lipoprotein of 1-palmitoyl-2-oleyl-glycerophosphocoline, cholesterol and recombinant human apolipoprotein E, molar ratio 100:10:1 or 100:0:1
- amount of α2-macroglobulin released from the glia cells [1]: decrease

Substance: LP: reconstituted lipoprotein of POPC, cholesterol and recombinant human apolipoprotein E3
- formation of a complex of LRP1 and NMDA receptor [2]: promotes
